Legend:
[1] = tested on: 786-0; assay: NCI-60 anticancer screen (SRB; single dose and five doses); conditions: Homo sapiens, 786-0, 48 h, read-out: Growth Percentage
[2] = tested on: HCT-15; assay: as above; conditions: Homo sapiens, HCT-15, 48 h, read-out: Growth Percentage
[3] = tested on: BT-549; assay: as above; conditions: Homo sapiens, BT-549, 48 h, read-out: Growth Percentage
[4] = tested on: OVCAR-3; assay: cells; conditions: Homo sapiens, OVCAR-3, 48 h, read-out: Growth Percentage
[5] = tested on: SF-539; assay: NCI-60 anticancer screen (SRB; single dose and five doses); conditions: Homo sapiens, SF-539, 48 h, read-out: Growth Percentage
[6] = tested on: A549/ATCC; assay: as above; conditions: Homo sapiens, A549, 48 h, read-out: Growth Percentage
[7] = tested on: NCI-H522; assay: as above; conditions: Homo sapiens, NCI-H522, 48 h, read-out: Growth Percentage
[8] = tested on: MALME-3M; assay: as above; conditions: Homo sapiens, 48 h, read-out: Growth Percentage
[9] = tested on: SNB-19; assay: cells; conditions: Homo sapiens, SNB-19, 48 h, read-out: Growth Percentage
[10] = tested on: SF-268; assay: NCI-60 anticancer screen (SRB; single dose and five doses); conditions: Homo sapiens, SF-268, 48 h, read-out: Growth Percentage
[11] = tested on: RPMI-8226; assay: as above; conditions: Homo sapiens, RPMI-8226, 48 h, read-out: Growth Percentage
[12] = tested on: UO-31; assay: as above; conditions: Homo sapiens, UO-31, 48 h, read-out: Growth Percentage
[13] = tested on: SK-OV-3; assay: as above; conditions: Homo sapiens, SK-OV-3, 48 h, read-out: Growth Percentage
[14] = tested on: HOP-62; assay: as above; conditions: Homo sapiens, HOP-62, 48 h, read-out: Growth Percentage
[15] = tested on: SK-MEL-2; assay: as above; conditions: Homo sapiens, SK-MEL-2, 48 h, read-out: Growth Percentage
[16] = tested on: HS 578T; assay: as above; conditions: Homo sapiens, 48 h, read-out: Growth Percentage
[17] = tested on: MDA-MB-231/ATCC; assay: as above; conditions: Homo sapiens, MDA-MB-231, 48 h, read-out: Growth Percentage
[18] = tested on: SR; assay: as above; conditions: Homo sapiens, 48 h, read-out: Growth Percentage
[19] = tested on: NCI-H226; assay: as above; conditions: Homo sapiens, NCI-H226, 48 h, read-out: Growth Percentage
[20] = tested on: NCI-H322M; assay: as above; conditions: Homo sapiens, 48 h, read-out: Growth Percentage
[21] = tested on: OVCAR-4; assay: as above; conditions: Homo sapiens, OVCAR-4, 48 h, read-out: Growth Percentage
[22] = tested on: CAKI-1; assay: as above; conditions: Homo sapiens, CAKI-1, 48 h, read-out: Growth Percentage
[23] = tested on: M14; assay: as above; conditions: Homo sapiens, M14, 48 h, read-out: Growth Percentage
[24] = tested on: RXF 393; assay: as above; conditions: Homo sapiens, RXF 393, 48 h, read-out: Growth Percentage
[25] = tested on: MDA-MB-435; assay: as above; conditions: Homo sapiens, MDA-MB-435, 48 h, read-out: Growth Percentage
[26] = tested on: SW-620; assay: as above; conditions: Homo sapiens, SW-620, 48 h, read-out: Growth Percentage
[27] = tested on: U251; assay: as above; conditions: Homo sapiens, U-251, 48 h, read-out: Growth Percentage
[28] = tested on: TK-10; assay: as above; conditions: Homo sapiens, TK-10, 48 h, read-out: Growth Percentage
[29] = tested on: SNB-75; assay: as above; conditions: Homo sapiens, SNB-75, 48 h, read-out: Growth Percentage

Row | SMILES | activity at 10 µM [2] | activity at 10 µM [3] | activity at 10 µM [4] | activity at 10 µM [5] | activity at 10 µM [6] | activity at 10 µM [7] | activity at 10 µM [9] | activity at 10 µM [10] | activity at 10 µM [11] | activity at 10 µM [15] | activity at 10 µM [16] | activity at 10 µM [17] | activity at 10 µM [19] | activity at 10 µM [21] | activity at 10 µM [22] | activity at 10 µM [23] | activity at 10 µM [24] | activity at 10 µM [25] | activity at 10 µM [26] | activity at 10 µM [27] | other results
1 | Cc1[nH]c(=S)sc1C(=O)/C=C/c1cccc(F)c1 [2b, (E)-3-(3-Fluorophenyl)-1-(4-Methyl-2-Thioxo-2,3-Dihydrothiazol-5-yl)Prop-2-En-1-One] | 19.1% | 65.7% | -1.17% | 6.17% | 76.4% | 63.9% | 44% | 82.3% | 15.2% | 81.2% | 79.8% | 67.4% | 85.7% | 79.5% | 37.7% | 78.5% | 23.2% | 35.9% | 20.9% | 17.6% | activity at 10 µM [1]: 46.9%; activity at 10 µM [8]: 101%; activity at 10 µM [12]: 44.3%; activity at 10 µM [13]: 111%; activity at 10 µM [14]: 34.8%; activity at 10 µM [18]: 6.82%; activity at 10 µM [20]: 84.5%
2 | COc1ccc(/C=C/C(=O)c2sc(=S)[nH]c2C)c(OC)c1 [2n, (E)-3-(2,4-Dimethoxyphenyl)-1-(4-Methyl-2-Thioxo-2,3-Dihydrothiazol-5-yl)Prop-2-En-1-One] | 45.8% | 59.8% | 91.2% | 87.3% | 90% | 73.5% | 77.4% | 89.7% | 35.6% | 64.7% | 89.5% | 98.7% | 79.7% | 52% | 82.8% | 75.8% | 68.9% | 84.7% | 84.9% | 68.6% | activity at 10 µM [1]: 85.9%; activity at 10 µM [28]: 94.1%; activity at 10 µM [13]: 101%; activity at 10 µM [14]: 88.8%
3 | Cc1[nH]c(=S)sc1C(=O)/C=C/c1ccccc1Cl [2d, (E)-3-(2-Chlorophenyl)-1-(4-Methyl-2-Thioxo-2,3-Dihydrothiazol-5-yl)Prop-2-En-1-One] | 57.4% | 76.8% | 77.4% | 93.6% | 87.6% | 90.1% | 85.2% | 80.4% | 28.6% | 84.8% | 92.8% | 101% | 89.6% | 90.3% | 68.5% | 82.3% | 93.8% | 80.8% | 82% | 63.3% | activity at 10 µM [1]: 93.1%; activity at 10 µM [8]: 105%; activity at 10 µM [12]: 73.7%; activity at 10 µM [13]: 118%; activity at 10 µM [14]: 91.7%; activity at 10 µM [18]: 14.1%; activity at 10 µM [20]: 106%
4 | COc1cccc(/C=C/C(=O)c2sc(=S)[nH]c2C)c1OC [2m, (E)-3-(2,3-Dimethoxyphenyl)-1-(4-Methyl-2-Thioxo-2,3-Dihydrothiazol-5-yl)Prop-2-En-1-One] | 32.7% | 71% | 24.3% | 22.7% | 43.1% | 32.9% | 37.2% | 54% | 9.09% | 94.2% | 49.2% | 68.3% | 90.8% | 62.2% | 41.9% | 54% | 52.5% | 51.9% | 47.9% | 20.3% | activity at 10 µM [28]: 64.5%; activity at 10 µM [8]: 97.1%; activity at 10 µM [29]: 50.4%; activity at 10 µM [12]: 53.7%; activity at 10 µM [13]: 85.6%; activity at 10 µM [14]: 91.8%; activity at 10 µM [18]: 5.15%; activity at 10 µM [20]: 62.8%
5 | Cc1[nH]c(=S)sc1C(=O)/C=C/c1ccccc1 [2a, (E)-1-(4-Methyl-2-Thioxo-2,3-Dihydrothiazol-5-yl)-3-Phenylprop-2-En-1-One] | 35% | 68.8% | 42.7% | 41.7% | 82.3% | 71.7% | 66.8% | 69.8% | 14.1% | 68.2% | 90.1% | 70% | 96.5% | 76.4% | 52.5% | 77.1% | 46.4% | 50.1% | 69.1% | 56.9% | activity at 10 µM [1]: 68.1%; activity at 10 µM [28]: 80.3%; activity at 10 µM [8]: 87.8%; activity at 10 µM [29]: 92.7%; activity at 10 µM [12]: 39.3%; activity at 10 µM [18]: 32.4%; activity at 10 µM [20]: 66.5%
6 | COc1ccc(/C=C/C(=O)c2sc(=S)[nH]c2C)cc1 [2l, (E)-3-(4-Methoxyphenyl)-1-(4-Methyl-2-Thioxo-2,3-Dihydrothiazol-5-yl)Prop-2-En-1-One] | 50.8% | 75% | 66.9% | 69.8% | 82.9% | 61.4% | 75.6% | 81% | 19.6% | 80.3% | 96.5% | 89.3% | 93.6% | 72.3% | 59% | 87.5% | 77.5% | 63.9% | 75.3% | 62.3% | activity at 10 µM [1]: 78.1%; activity at 10 µM [28]: 80.9%; activity at 10 µM [8]: 90%; activity at 10 µM [29]: 98%; activity at 10 µM [12]: 49%; activity at 10 µM [18]: 43.7%; activity at 10 µM [20]: 92.4%
